According to patent US20240109893A1, “PREPARATION AND APPLICATION METHOD OF HETEROCYCLIC COMPOUNDS AS KRAS INHIBITOR” (SHANGHAI KECHOW PHARMA, INC., priority 2020, published 2024):
pIC50: −log10 of the molar value.

Assays:
H358 cells = assay: Cell activity experiment: activity test of H358 cells (MTT, 5 days); assay type: cell-based; conditions: 5 days incubation, absorbance 492 nm
How it was run: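 H358 cells seeded 90 μL at 55555 cells/mL, grown 24 h, then exposed to 3-fold serial compound dilutions (final top 10000 nM, 0.5% DMSO) in triplicate for 5 days at 37° C., 5% CO2. Viability by MTT (4 h), formazan dissolved in DMSO, absorbance at 492 nm.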

KRAS G12C-GDP = KRAS G12C-GDP (Homo sapiens (Human), UniProt P01116, G12C); assay: KRAS G12C-GDP exchange test (SOS/cRAF/GTP, HTRF); assay type: biochemical; conditions: 1 h premix with compound, 2 h reaction with SOS, cRAF, GTP
KRAS G12C-GDP, sequence (P01116-2 other isoform, or with tags, fused parts or gaps G12C): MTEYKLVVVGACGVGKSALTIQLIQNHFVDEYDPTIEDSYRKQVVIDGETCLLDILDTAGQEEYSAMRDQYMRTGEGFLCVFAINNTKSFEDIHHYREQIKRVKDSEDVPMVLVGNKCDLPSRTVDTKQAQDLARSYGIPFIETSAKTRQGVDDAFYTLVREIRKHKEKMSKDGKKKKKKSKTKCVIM
Procedure: 2. A mixture of SOS (Pharmaron, ZZY-20190823), cRAF (Pharmaron, ZZY-20190823), GTP (Sigma, A6885-100MG), MAb Anti 6HIS-d2/MAb Anti GST-Eu (Cisbio, 61HISDLB/61GSTKLB) was added for a catalyzed reaction for 2 h.
3. The fluorescence signals of the emitted light at 615 nm and 665 nm under 320 nm excitation light were read by Biotek Microplate Reader (Synergy4).
4. The IC50 (median inhibitory concentration) of the compound was obtained by the following non-linear fitting formula: Y=Bottom+(Top−Bottom)/(1+10^((Log IC50−X)*Hill Slope)), and the data were analyzed by Graphpad 6-0 software.

[1] = Pharmacokinetic experiment in SD rats; assay type: in vivo; conditions: male, Sprague-Dawley, rat, plasma, po, 10 mg/kg; read-out: Oral bioavailability, F %
Procedure: Pharmacokinetic Experiment in SD Rats:
1. SPF male rats were randomly divided into groups. The compounds to be tested were separately administered by intravenous injection and oral gavage, with 3 animals for each compound to be tested in each mode of administration. The administration solvent was 5% DMSO+10% Solutol+85% normal saline or 85% PBS, and the substances to be tested were dissolved in the solvent to obtain clear solutions. Administration concentration and volume: 1) a single intravenous injection of 0.6 mg/mL of the compound to be tested, with an administration volume of 5 mL/kg and an administration dosage of 3 mg/kg; and 2) a single oral gavage of 1 mg/mL of the compound to be tested, with an administration volume of 10 mL/kg and an administration dosage of 10 mg/kg. The rats were fasted overnight (10-14 h) before administration and fed 4 h after administration.
2. Blood was collected via the jugular vein or by other appropriate methods at 200 μL per time point and anticoagulated with K2-EDTA, and after collection, the blood was placed on ice and centrifuged for plasma within 1 h (centrifugation conditions: 6800 g, 6 min 2-8° C.). The points for blood sampling from the animals in the intravenous injection group were respectively: before administration, and 5 min, 15 min, 30 min, 1 h, 2 h, 4 h, 8 h, and 24 h after administration; and the points for blood sampling from the animals in the oral administration group were respectively: before administration, and 15 min, 30 min, 1 h, 2 h, 4 h, 6 h, 8 h, and 24 h after administration.
3. The blood concentration was detected, and the pharmacokinetic parameter AUC(0-t) was calculated by Phoenix WinNonlin based on the blood concentration data at various time points. When the pharmacokinetic parameters were calculated, the BLQ before Cmax (including ‘No peak’) was calculated as 0: and BLQ after Cmax (including ‘No peak’) was not involved in the calculation.

Row | SMILES | pIC50 (H358 cells) | pIC50 (KRAS G12C-GDP) | bioavailability [1] [%] | pIC50 (H358 cells; Homo sapiens, NCI-H358, 120 h)
1 | C=C(F)C(=O)N1CCN(c2nc(OC[C@@]34CCCN3C[C@H](F)C4)nc3c(F)c(-c4cccc5c4CC4CC54)ncc23)C[C@@H]1CC#N (single isomer, unassigned) [Example 879] | 8.40 | 9.23 | 16.9 | 
2 | C=C(F)C(=O)N1CCN(c2nc(OC[C@@]34CCCN3C[C@H](F)C4)nc3c(F)c(-c4cccc5cccc(Cl)c45)ccc23)C[C@@H]1CC#N [Example 904, 2-((S)-4-(7-(8-chloronaphthalen-1-yl)-8-fluoro-2-((2R,7aS)-2-fluorotetrahydro-1H-pyrrolizin-7a(5H)-methoxy)quinazolin-4-yl)-1-(2-fluoroacryloyl)piperazin-2-yl)acetonitrile] |  | 9.03 | 30.3 | 9.40
3 | C=CC(=O)N1CCN(c2nc(OC[C@@]34CCCN3C[C@H](F)C4)nc3c(F)c(-c4cccc5cccc(Cl)c45)ccc23)C[C@@H]1CC#N [Example 367, 2-((2S)-1-acryloyl-4-(7-(8-chloronaphthalen-1-yl)-8-fluoro-2-((((2R,7aS)-2-fluorotetrahydro-1H-pyrrolizin-7a(5H))-yl)methoxy)quinazolin-4-yl)piperazin-2-yl)acetonitrile] |  |  | 11.6 | 8.82
4 | C=CC(=O)N1CCN(c2nc(OC[C@@H]3CCCN3C)nc3c(F)c(-c4ccc(F)c5c4CCCC5)ncc23)C[C@@H]1CC#N [Example 17, 2-((S)-1-acryloyl-4-(8-fluoro-7-(4-fluoro-5,6,7,8-tetrahydronaphthalen-1-yl)-2-(((S)-1-methylpyrrolidin-2-yl)methoxy)pyridino[4,3-d]pyrimidin-4-yl)piperazin-2-yl)acetonitrile] |  | 8.78 |  | 7.52
5 | C=C(F)C(=O)N1CCN(c2nc(OC[C@@]34CCCN3C[C@H](F)C4)nc3c(F)c(-c4cccc5ccc(F)c(Cl)c45)ccc23)C[C@@H]1CC#N [Example 914, 2-((S)-4-(7-(8-chloro-7-fluoronaphthalen-1-yl)-8-fluoro-2-((2R,7aS)-2-fluorotetrahydro-1H-pyrrolizin-7a(5H)-ylmethoxy)quinazolin-4-yl)-1-(2-fluoroacryloyl)piperazin-2-yl)acetonitrile] |  |  | 28.5 | 9.40
6 | C=CC(=O)N1CCN(c2nc(OCC34CCCN3CCC4)nc3c(F)c(-c4cccc5c4CCCC5)ncc23)C[C@@H]1CC#N [Example 2, (S)-2-(1-acryloyl-4-(8-fluoro-2-((tetrahydro-1H-pyrrolizin-7a(5H)-yl)methoxy)-7-(5,6,7,8-tetrahydronaphthalen-1-yl)pyridino[4,3-d]pyrimidin-4-yl)piperazin-2-yl)acetonitrile] |  | 7.98 |  | 9.00
7 | C=C(F)C(=O)N1CC[C@@H]2[C@H]1CN2c1nc(OC[C@@H]2CCCN2C)nc2c(F)c(-c3cccc4c3CCCC4)ncc12 [Example 10, 2-fluoro-1-((1R,5R)-6-(8-fluoro-2-(((S)-1-methylpyrrolidin-2-yl)methoxy)-7-(5,6,7,8-tetrahydronaphthalen-1-yl)pyridino[4,3-d]pyrimidin-4-yl)-2,6-diazabicyclo[3.2.0]hept-2-yl)prop-2-en-1-one] |  | 8.10 |  | 7.22
8 | C=CC(=O)N1CCN(c2nc(OC[C@@H]3CCCN3C)nc3cc(-c4cccc5cccc(Cl)c45)c(Cl)cc23)C[C@@H]1CC#N [Example 465, 2-((S)-1-acryloyl-4-(6-chloro-7-(8-chloronaphthalen-1-yl)-2-(((S)-1-methylpyrrolidin-2-yl)methoxy)quinazolin-4-yl)piperazin-2-yl)acetonitrile] |  | 8.65 |  | 7.15
9 | C=CC(=O)N1CCN(c2nc(OC[C@@H]3CCCN3C)nc3c(F)c(-c4cccc5c4CCCC5)ncc23)C[C@@H]1CC#N [Example 1, 2-((S)-1-acryloyl-4-(8-fluoro-2-(((S)-1-methylpyrrolidin-2-yl)methoxy)-7-(5,6,7,8-tetrahydronaphthalen-1-yl)pyridino[4,3-d]pyrimidin-4-yl)piperazin-2-yl)acetonitrile] |  | 7.69 |  | 7.82
